# Test results published in US6362193B1, “Cycloalkenyl substituted compounds” (SmithKline Beecham Corporation, priority 1997, dated 2002).
# How the values were obtained:
# [1] = target: T1, CSBP2 (Homo sapiens, UniProt Q16539); experiment: CSBP Kinase Assay; assay type: biochemical; conditions: yeast-expressed purified CSBP2; 170 uM ATP (Km); T669 peptide substrate; 30° C. for 10 min
# T1 construct: made in house; host or cells: yeast
# Procedure: This assay measures the CSBP-catalyzed transfer of ^32P from [a-^32P]ATP to threonine residue in an epidermal growth factor receptor (EGFR)-derived peptide (T669) with the following sequence: […] (residues 661-681). (See Gallagher et al., “Regulation of Stress Induced Cytokine Production by Pyridinyl Imidazoles: Inhibition of CSPB Kinase”, BioOrganic & Medicinal Chemistry, to be published 1996).
# Kinase reactions (total volume 30 ul) contain: 25 mM Hepes buffer, pH 7.5; 10 mM MgCl2; 170 uM ATP^(1); 10 uM Na ortho vanadate; 0.4 mM T669 peptide; and 20-80 ng of yeast-expressed purified CSBP2 (see Lee et al., Nature 300, n(72), 739-746 (December 1994)). Compounds (5 ul from [6×] stock^(2)) are pre-incubated with the enzyme and peptide for 20 min on ice prior to starting the reactions with 32P/MgATP. Reactions are incubated at 30° C. for 10 min and stopped by adding 10 ul of 0.3 M phosphoric acid. 32P-labeled peptide is separated on phosphocellulose (Wattman, p81) filters by spotting 30 ul reaction mixture. Filters are washed 3 times with 75 mM phosphoric acid followed by 2 washes with H2O, and counted for 32P.
# (1) The Km of CSBP for ATP was determined to be 170 uM. Therefore, compounds screened at the Km value of ATP.
# (2) Compounds are usually dissolved in DMSO and are diluted in 25 mM Hepes buffer to get final concentration of DMSO of 0.17%.
# T1 sequence (Q16539 whole entry): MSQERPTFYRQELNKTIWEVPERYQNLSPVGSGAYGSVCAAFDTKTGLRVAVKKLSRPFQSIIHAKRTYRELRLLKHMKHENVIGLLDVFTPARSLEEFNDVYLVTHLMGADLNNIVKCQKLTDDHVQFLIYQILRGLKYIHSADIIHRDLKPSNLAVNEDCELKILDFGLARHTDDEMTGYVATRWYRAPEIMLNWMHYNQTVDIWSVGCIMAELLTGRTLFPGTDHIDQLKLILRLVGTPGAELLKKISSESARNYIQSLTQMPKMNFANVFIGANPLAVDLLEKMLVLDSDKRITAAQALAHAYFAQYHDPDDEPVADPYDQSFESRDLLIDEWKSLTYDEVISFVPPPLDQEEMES
compound,measurement,setting,value
"Nc1nccc(C2=C(c3ccc(F)cc3)CCC2)n1 [Example 1, 1-[4-(2-Aminopyrimidinyl)]-2-(4-fluorophenyl)cyclopenten-1-ene]",IC50,[1],< 50 µM
same,melting point,,134 to 135 °C
